Article PMC3089805 (Chemmedchem, 2010)
In brackets after ≈: the same amount, converted by molar mass.

Tests used:
[1] = tested on: H. pylori strain 26695; test: MIC determination, liquid microdilution, H. pylori; assay type: cell-based; conditions: Helicobacter pylori, 26695, 27 h, read-out: MIC H. pylori
[2] = tested on: C. jejuni strain H840; test: MIC determination, liquid microdilution, C. jejuni; assay type: cell-based; conditions: Campylobacter jejuni, H840, 27 h, read-out: MIC C. jejuni

| SMILES | MIC [1] [µM] | MIC [2] [µM] |
| --- | --- | --- |
| O=C(Nc1ncc([N+](=O)[O-])s1)c1ccc(-c2cccc(Cl)c2)o1 [Analogue 66, 5-(3-Chlorophenyl)-N-(5-nitrothiazol-2-yl)furan-2-carboxamide] | 1.1 (≈ 0.385 µg/mL) | 22.9 (≈ 8.01 µg/mL) |
| CC1=C(C(=O)Nc2ncc([N+](=O)[O-])s2)Cc2ccccc21 [Analogue 47, 3-Methyl-N-(5-nitrothiazol-2-yl)indene-2-carboxamide] | 1.7 (≈ 0.512 µg/mL) | 26.5 (≈ 7.99 µg/mL) |
| O=C(CCCc1ccccc1)Nc1ncc([N+](=O)[O-])s1 [Analogue 45, N-(5-Nitrothiazol-2-yl)-4-phenylbutanamide] | 0.3 (≈ 0.0874 µg/mL) | 1.3 (≈ 0.379 µg/mL) |
| O=C(/C=C/c1ccc(C(F)(F)F)cc1)Nc1ncc([N+](=O)[O-])s1 [Analogue 55, (E)-N-(5-Nitrothiazol-2-yl)-3-(4-(trifluoromethyl)phenyl)acrylamide] | 0.5 (≈ 0.172 µg/mL) | 93.2 (≈ 32 µg/mL) |
| O=C(Nc1ncc([N+](=O)[O-])s1)c1cc2cc([N+](=O)[O-])ccc2o1 [Analogue 73, 5-Nitro-N-(5-nitrothiazol-2-yl)benzofuran-2-carboxamide] | 4.5 (≈ 1.5 µg/mL) | 4.5 (≈ 1.5 µg/mL) |
| O=C(Nc1ncc([N+](=O)[O-])s1)c1ccc([N+](=O)[O-])cc1 [Analogue 27, 4-Nitro-N-(5-nitrothiazol-2-yl)benzamide] | 1.3 (≈ 0.383 µg/mL) | 13.6 (≈ 4 µg/mL) |
| O=C(Nc1ncc([N+](=O)[O-])s1)c1ccc(C(F)(F)F)cc1[N+](=O)[O-] [Analogue 36, 2-Nitro-N-(5-nitrothiazol-2-yl)-4-(trifluoromethyl)benzamide] | 8.3 (≈ 3.01 µg/mL) | 88.3 (≈ 32 µg/mL) |
| O=C(Nc1ncc([N+](=O)[O-])s1)c1ccc(F)c(F)c1 [Analogue 10, 3,4-Difluoro-N-(5-nitrothiazol-2-yl)benzamide] | 1.8 (≈ 0.513 µg/mL) | 5.3 (≈ 1.51 µg/mL) |
| O=C(Nc1ncc([N+](=O)[O-])s1)c1cc2ccccc2o1 [Analogue 72, N-(5-Nitrothiazol-2-yl)benzofuran-2-carboxamide] | 0.6 (≈ 0.174 µg/mL) | 111 (≈ 32 µg/mL) |
| O=C(Nc1ncc([N+](=O)[O-])s1)c1ccccc1C(F)(F)F [Analogue 22, N-(5-Nitrothiazol-2-yl)-2-(trifluoromethyl)benzamide] | 1.6 (≈ 0.508 µg/mL) | 18.9 (≈ 6 µg/mL) |
| O=C(Nc1ncc([N+](=O)[O-])s1)c1ccc(-c2cccc([N+](=O)[O-])c2)o1 [Analogue 69, 5-(3-Nitrophenyl)-N-(5-nitrothiazol-2-yl)furan-2-carboxamide] | 6.9 (≈ 2.49 µg/mL) | 16.7 (≈ 6.02 µg/mL) |
| O=C(Nc1ncc([N+](=O)[O-])s1)c1ccc(-c2ccoc2)s1 [Analogue 83, 5-(Furan-3-yl)-N-(5-nitrothiazol-2-yl)thiophene-2-carboxamide] | 7.8 (≈ 2.51 µg/mL) | 12.4 (≈ 3.98 µg/mL) |
| O=C(Nc1ncc([N+](=O)[O-])s1)c1cccc(F)c1 [Analogue 7, 3-Fluoro-N-(5-nitrothiazol-2-yl)benzamide] | 0.9 (≈ 0.241 µg/mL) | 11.2 (≈ 2.99 µg/mL) |
| COc1ccccc1C(=O)Nc1ncc([N+](=O)[O-])s1 [Analogue 28, 2-Methoxy-N-(5-nitrothiazol-2-yl)benzamide] | 1.8 (≈ 0.503 µg/mL) | 17.9 (≈ 5 µg/mL) |
| N#Cc1ccc(C(=O)Nc2ncc([N+](=O)[O-])s2)cc1 [Analogue 21, 4-Cyano-N-(5-nitrothiazol-2-yl)benzamide] | 9.1 (≈ 2.5 µg/mL) | 43.8 (≈ 12 µg/mL) |
| O=C(Nc1ncc([N+](=O)[O-])s1)c1ccc(F)cc1C(F)(F)F [Analogue 35, 4-Fluoro-N-(5-nitrothiazol-2-yl)-2-(trifluoromethyl)benzamide] | 3.4 (≈ 1.14 µg/mL) | 23.9 (≈ 8.01 µg/mL) |
| CCCCCCCCCC(=O)Nc1ncc([N+](=O)[O-])s1 [Analogue 52, N-(5-Nitrothiazol-2-yl)decanamide] | 0.8 (≈ 0.24 µg/mL) | 107 (≈ 32 µg/mL) |
| O=C(Nc1ncc([N+](=O)[O-])s1)c1ccc(-c2cccc(F)c2)o1 [Analogue 67, 5-(3-Fluorophenyl)-N-(5-nitrothiazol-2-yl)furan-2-carboxamide] | 1.5 (≈ 0.5 µg/mL) | 24 (≈ 8 µg/mL) |
| COc1cc(C(F)(F)F)ccc1C(=O)Nc1ncc([N+](=O)[O-])s1 [Analogue 32, 2-Methoxy-N-(5-nitrothiazol-2-yl)-4-(trifluoromethyl)benzamide] | 0.9 (≈ 0.313 µg/mL) |  |
| O=C(Nc1ncc([N+](=O)[O-])s1)[C@@H]1C[C@H]1c1ccccc1 [Analogue 46, (1R,2R)-N-(5-Nitrothiazol-2-yl)-2-phenylcyclopropanecarboxamide] | 13.8 (≈ 3.99 µg/mL) | 2.6 (≈ 0.752 µg/mL) |
| CCCC(=O)Nc1ncc([N+](=O)[O-])s1 [Analogue 49, N-(5-Nitrothiazol-2-yl)butyramide] | 3.5 (≈ 0.753 µg/mL) | 13.9 (≈ 2.99 µg/mL) |

| SMILES | MIC [1] [µM] | MIC [2] [µM] |
| --- | --- | --- |
| N#Cc1cccc(C(=O)Nc2ncc([N+](=O)[O-])s2)c1 [Analogue 20, 3-Cyano-N-(5-nitrothiazol-2-yl)benzamide] | 4.1 (≈ 1.12 µg/mL) | 36.5 (≈ 10 µg/mL) |
| O=C(Nc1ncc([N+](=O)[O-])s1)c1cc(F)c(F)c(F)c1F [Analogue 15, 2,3,4,5-Tetrafluoro-N-(5-nitrothiazol-2-yl)benzamide] | 1.2 (≈ 0.385 µg/mL) | 4.7 (≈ 1.51 µg/mL) |
| O=C(C=Cc1ccccc1)Nc1ncc([N+](=O)[O-])s1 [Analogue 54, N-(5-Nitrothiazol-2-yl)cinnamamide] | 0.3 (≈ 0.0826 µg/mL) | 2.7 (≈ 0.743 µg/mL) |
| O=C(Nc1ncc([N+](=O)[O-])s1)c1cc(C(F)(F)F)ccc1Cl [Analogue 39, 2-Chloro-N-(5-nitrothiazol-2-yl)-5-(trifluoromethyl)benzamide] | 1.1 (≈ 0.387 µg/mL) | 17.1 (≈ 6.01 µg/mL) |
| O=C(Nc1ncc([N+](=O)[O-])s1)c1ccc(F)c([N+](=O)[O-])c1 [Analogue 37, 4-Fluoro-3-nitro-N-(5-nitrothiazol-2-yl)benzamide] | 1.6 (≈ 0.5 µg/mL) | 51.2 (≈ 16 µg/mL) |
| O=C(Nc1ncc([N+](=O)[O-])s1)c1ccc(-c2ccsc2)s1 [Analogue 82, N-(5-Nitrothiazol-2-yl)-2,3′-bithiophene-5-carboxamide] | 3 (≈ 1.01 µg/mL) | 94.8 (≈ 32 µg/mL) |
| COc1cc([N+](=O)[O-])ccc1C(=O)Nc1ncc([N+](=O)[O-])s1 [Analogue 33, 2-Methoxy-4-nitro-N-(5-nitrothiazol-2-yl)benzamide] | 0.6 (≈ 0.195 µg/mL) | 9.3 (≈ 3.02 µg/mL) |
| O=C(Nc1ncc([N+](=O)[O-])s1)c1ccc(-c2cccc(Cl)c2)s1 [Analogue 81, 5-(3-Chlorophenyl)-N-(5-nitrothiazol-2-yl)thiophene-2-carboxamide] | 0.7 (≈ 0.256 µg/mL) | 5.5 (≈ 2.01 µg/mL) |
| O=C(Nc1ncc([N+](=O)[O-])s1)c1c(F)c(F)c(F)c(F)c1F [Analogue 16, 2,3,4,5,6-Pentafluoro-N-(5-nitrothiazol-2-yl)benzamide] | 7.4 (≈ 2.51 µg/mL) |  |
| O=C(CCc1ccccc1)Nc1ncc([N+](=O)[O-])s1 [Analogue 44, N-(5-Nitrothiazol-2-yl)-3-phenylpropanamide] | 21.6 (≈ 5.99 µg/mL) | 1.8 (≈ 0.499 µg/mL) |
| CCCCCCCC(=O)Nc1ncc([N+](=O)[O-])s1 [Analogue 51, N-(5-Nitrothiazol-2-yl)octanamide] | 1.4 (≈ 0.38 µg/mL) | 5.5 (≈ 1.49 µg/mL) |
| O=C(Nc1ncc([N+](=O)[O-])s1)c1ccc(F)cc1F [Analogue 9, 2,4-Difluoro-N-(5-nitrothiazol-2-yl)benzamide] | 0.4 (≈ 0.114 µg/mL) | 7 (≈ 2 µg/mL) |
| O=C(Nc1ncc([N+](=O)[O-])s1)c1ccc(-c2ccsc2)o1 [Analogue 71, N-(5-Nitrothiazol-2-yl)-5-(thiophen-3-yl)furan-2-carboxamide] | 6.2 (≈ 1.99 µg/mL) | 99.6 (≈ 32 µg/mL) |
| O=C(Nc1ncc([N+](=O)[O-])s1)c1cc(Cl)sc1Cl [Analogue 75, 2,5-Dichloro-N-(5-nitrothiazol-2-yl)thiophene-3-carboxamide] | 1.5 (≈ 0.486 µg/mL) | 2.3 (≈ 0.746 µg/mL) |
| O=C(Nc1ncc([N+](=O)[O-])s1)c1ccc(-c2ccoc2)o1 [Analogue 70, N-(5-Nitrothiazol-2-yl)-2,3′-bifuran-5-carboxamide] | 1.6 (≈ 0.488 µg/mL) | 13.1 (≈ 4 µg/mL) |
| O=C(Nc1ncc([N+](=O)[O-])s1)c1ccc(-c2ccccc2)o1 [Analogue 65, N-(5-Nitrothiazol-2-yl)-5-phenylfuran-2-carboxamide] | 2.4 (≈ 0.757 µg/mL) | 102 (≈ 32 µg/mL) |
| O=C(Nc1ncc([N+](=O)[O-])s1)c1c(F)cccc1F [Analogue 11, 2,6-Difluoro-N-(5-nitrothiazol-2-yl)benzamide] | 0.7 (≈ 0.2 µg/mL) | 14 (≈ 3.99 µg/mL) |
| O=C(Cc1ccccc1)Nc1ncc([N+](=O)[O-])s1 [Analogue 43, N-(5-Nitrothiazol-2-yl)-2-phenylacetamide] | 0.7 (≈ 0.184 µg/mL) | 11.4 (≈ 3 µg/mL) |
| O=C(Nc1ncc([N+](=O)[O-])s1)c1cccc([N+](=O)[O-])c1O [Analogue 34, 2-Hydroxy-3-nitro-N-(5-nitrothiazol-2-yl)benzamide] | 19.3 (≈ 5.99 µg/mL) | 103 (≈ 32 µg/mL) |
| O=C(Nc1ncc([N+](=O)[O-])s1)c1cc(F)c(F)cc1F [Analogue 14, 2,4,5-Trifluoro-N-(5-nitrothiazol-2-yl)benzamide] | 0.8 (≈ 0.243 µg/mL) | 9.9 (≈ 3 µg/mL) |
| O=C(Nc1ncc([N+](=O)[O-])s1)c1cc(Br)c(Br)o1 [Analogue 63, 4,5-Dibromo-N-(5-nitrothiazol-2-yl)furan-2-carboxamide] | 2.8 (≈ 1.11 µg/mL) | 20.2 (≈ 8.02 µg/mL) |
